We go through eleven compounds from patent US5965699A (priority 1996, dated 1999).

The test concerns the target botox A (Clostridium botulinum, UniProt P0DPI1). The test is classed as biochemical. Also noted: Rate (initial rate of peptide hydrolysis) / Rate (initial rate of hydrolysis) In AcBSA: unit not given here.

Several values for one entry are separate records, joined by “and”; a condition that tells them apart may be missing. Equal values may be shown once. Read-outs that look alike come from different tables or passages of the source. Where a SMILES comes first, the peptide text is derived from it. [ ]: non-standard residue; d: D form. Abu = CC[C@H](N)C(=O)O A value given as a limit tells only on which side of the number the result lay.

Sequence of botox A (P0DPI1 2-448 limits assumed): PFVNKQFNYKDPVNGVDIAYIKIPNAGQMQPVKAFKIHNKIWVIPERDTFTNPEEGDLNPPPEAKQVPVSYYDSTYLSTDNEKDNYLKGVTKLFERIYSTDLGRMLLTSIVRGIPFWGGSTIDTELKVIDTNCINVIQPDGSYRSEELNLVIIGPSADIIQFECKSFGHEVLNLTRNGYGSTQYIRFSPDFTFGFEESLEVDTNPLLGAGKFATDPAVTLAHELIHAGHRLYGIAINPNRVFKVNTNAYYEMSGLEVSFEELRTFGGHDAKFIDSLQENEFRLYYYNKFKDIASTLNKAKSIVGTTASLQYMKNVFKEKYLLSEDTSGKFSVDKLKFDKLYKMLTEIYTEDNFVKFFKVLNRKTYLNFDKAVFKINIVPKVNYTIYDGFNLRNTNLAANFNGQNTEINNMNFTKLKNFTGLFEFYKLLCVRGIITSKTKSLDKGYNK

The Km is the concentration of substrate that gives half-maximal velocity. Consider `CC[C@H](NC(=O)[C@H](CCCNC(=N)N)NC(=O)[C@H](CC(N)=O)NC(=O)[C@H](CO)NC(C)=O)C(=O)N[C@@H](CCCNC(=N)N)C(=O)N[C@H](C(=O)N[C@@H](CC(=O)O)C(=O)N[C@@H](CCC(N)=O)C(=O)N[C@@H](C)C(=O)N[C@@H](CC(N)=O)C(=O)N[C@@H](CCC(N)=O)C(=O)N[C@@H](CCCNC(=N)N)C(=O)N[C@@H](C)C(=O)N[C@H](C(=O)N[C@@H](CCCNC(=N)N)C(=O)N[C@@H](CCSC)C(=O)N[C@@H](CC(C)C)C(N)=O)[C@@H](C)O)[C@@H](C)CC` [peptide 7, S N R B R I D Q A N Q R A T R M L] (Ac-SNR[Abu]RIDQANQRATRML-NH2), for which the Kcat In AcBSA came out at 73 s⁻¹, the “Rate (initial rate of hydrolysis) In AcBSA” value turned out to be 22, the “Rate (initial rate of hydrolysis) In BSA” value was 14 and the “Rate (initial rate of peptide hydrolysis)” value is 14.1 ± 0.7. Moreover, the “Relative Rate” value is 1.9. Also, where the note is “read-out: Km In AcBSA”, the Km worked out at 310 µM.

Consider “Ac-SNKTRIDEANARATKML-NH2 [Q11A, S N K T R I D E A N A R A T K M L]”, for which the “Relative Rate (initial hydrolysis rates relative to peptide [1-17])” value worked out at 0.19 and the “hydrolysis by botox A, described in words” value (from here on “hydrolysis … in words”) is given as “slowed but did not eliminate hydrolysis”.

With “Ac-SNKTRIDEANNRATKML-NH2 [Q11N, S N K T R I D E A N N R A T K M L]”, the “hydrolysis … in words” value was “slowed but did not eliminate hydrolysis”. The kcat (in 1/s) came to 19 ± 3. Also, the Km (read-out: Km) came to 750 ± 80 µM.

For the compound “Ac-SNKTRIDEANQAATKML-NH2 [R12A, S N K T R I D E A N Q A A T K M L]”, the “Relative Rate (initial hydrolysis rates relative to peptide [1-17])” value was less than 0.02.

Turning to “Ac-SNKTRIDEANQRASKML-NH2 [T14S, S N K T R I D E A N Q R A S K M L]”, the Km worked out at 1200 µM; the “Relative Rate (initial hydrolysis rates relative to peptide [1-17])” value is 0.26; the “hydrolysis … in words” value was “significantly lower hydrolysis rate”; the kcat was ~9.0 and 9.0 sec^-1. For the setting “read-out: Km”, the Km was approximately 1200 µM.

In the case of “Ac-SNKTRIDEANQRATAML-NH2 [K15A, S N K T R I D E A N Q R A T A M L]”, the “hydrolysis … in words” value was “significantly lower hydrolysis rate”. In addition, the kcat (in 1/s) is reported as approximately 8.0. For the same compound, the Km (read-out: Km) was approximately 1000 µM.

In the case of “Ac-SNKTRIDEANQRATKAL-NH2 [M16A, S N K T R I D E A N Q R A T K A L]”, the “Relative Rate (initial hydrolysis rates relative to peptide [1-17])” value is reported as “.38” and the “decrease in kcat compared with peptide [1-17]” value is on record as approximately 50%. Also, the kcat (in 1/s) is listed as 25 ± 1. In addition, where the note is “read-out: Km”, the Michaelis constant (Km) was found to be 1900 ± 100 µM.

As for “Ac-SNKTRIDEANQRATKM-NH2 [[1-16], S N K T R I D E A N Q R A T K M]”, the “Relative Rate (initial hydrolysis rates relative to peptide [1-17])” value is “.17” and the “hydrolysis … in words” value is on record as “excellent substrate”. The kcat (in 1/s) stood at 6 ± 4. Further, under “read-out: Km”, the Km turned out to be 1600 ± 100 µM.

As for “Ac-SNKTRIDEANQRATKML-NH2 [[1-17], S N K T R I D E A N Q R A T K M L]”, the Kcat In AcBSA is 41 s⁻¹, the Kcat In BSA amounted to 47 s⁻¹, the “Rate (initial rate of hydrolysis) In AcBSA” value is given as 10 and the “Rate (initial rate of hydrolysis) In BSA” value is 8. Moreover, the “Rate (initial rate of peptide hydrolysis)” value turned out to be 7.6 ± 0.3 and the “Relative Rate” value is recorded as 1.0. Also, under “in 1/s”, the kcat is 47 ± 2. Moreover, the Michaelis constant (Km) (read-out: Km) came to 1700 ± 100 µM. Moreover, the Km (read-out: Km In AcBSA) was found to be 590 µM.

On to “Ac-SNKTRIDEAQQRATKML-NH2 [N10Q, S N K T R I D E A Q Q R A T K M L]”, for which the “hydrolysis … in words” value is given as “No hydrolysis”.

For “Ac-SNKTRIDQANQRATKML-NH2 [E8Q, S N K T R I D Q A N Q R A T K M L]”, the “Relative Rate (initial hydrolysis rates relative to peptide [1-17])” value was determined as 2.08; the “decrease in Km compared with peptide [1-17]” value was “about 50%”; the “hydrolysis … in words” value was “doubling of the rate of hydrolysis”. Also, the kcat (in 1/s) turned out to be 51 ± 3. Also, the Km (read-out: Km) is 750 ± 40 µM.
